Data on two molecules can be found in US10842807B2, “Methods of treating neurodegenerative disorders comprising DNA methyltransferase inhibitors” (Washington University, priority 2016, dated 2020).

Common to all, as to assay type: cell-based, mouse
For assay [1], the system named is Htt-72Q-expressing primary striatal neurons. Nature of the assay: Neurofilament (NF) immunofluorescence, neurite degeneration in striatal neurons. The settings on record: DIV 4 striatal neurons transduced, fixed seven days later; vs. Htt-72Q (0 μM). The method, then:
(§1) Mouse primary cortical and striatal neurons from embryonic day (E) 15.5 Swiss Webster mouse fetuses (Taconic) were first plated in the minimal essential medium (MEM) containing 10% FBS, 0.45% glucose, 1 mM sodium pyruvate, 2 mM glutamine, 20 U/ml penicillin and 20 μg/ml streptomycin, for 3 h and then maintained in serum-free Neurobasal medium (Life Technologies) containing NeuroCult™ SM1 neuronal supplement ([…] Technologies), 0.5 mM glutamine and 25 μM glutamate for the first 3 d in a humidified incubator (37° C. in 5% CO2). Half of the medium was replaced with Neurobasal medium with SM1 and 0.5 mM glutamine every 3 days. Primary cortical neurons plated on 96-well flat clear bottom black plates (Corning #3904) at 4×10^4 cells/well were infected with Htt exon1 expression lentivirus (Htt-25Q or Htt-72Q) or control empty vector lentivirus at 5 days in vitro (DIV 5). Primary striatal neurons plated on 96-well plates at 1×10^5 cells/well were infected with Htt exon1 expression lentivirus at DIV 4. Viral copy number was adjusted for transduction of neurons on the basis of titer measured using the Lenti-X qRT-PCR titration kit (Clontech), and equal numbers of viral particles of Htt-25Q and Htt-72Q expressing lentiviruses were used for transduction. […]
(§2) For the measurement of neurofilament (NF) immunofluorescence intensity, cortical and striatal neurons cultured in a 96-well plate were fixed in 4% paraformaldehyde (PFA) in PBS for 20 min nine and seven days after Htt lentiviral infection, respectively, permeabilized with 0.1% Triton X-100 in PBS for 15 min at room temperature, and subjected to indirect immunofluorescence with anti-NF (2H3) primary antibody and Alexa Fluor 568-conjugated goat anti-mouse IgG secondary antibody (Life Technologies). […] Following image background subtraction, the NF immunofluorescence intensity was quantified using an ImageJ-based macro. Image capture and quantification of Htt (EM48) immunofluorescence intensity were performed as described for those of NF. […] About 300 nuclei from three random fields in a well were counted. […]

In assay [2] the test system is 5-mC in Bdnf promoter IV region. Nature of the assay: MeDIP-qPCR of Bdnf promoter IV. The settings on record: Htt-72Q-expressing cortical neurons, 0.2 μM vs DMSO. The source says: FIG. 4A-4H illustrate that mutant Htt increased the levels of DNA methylation at Bdnf exon IV regulatory region in primary cortical neurons. (FIG. 4A) Schematic of the mouse Bdnf exon IV regulatory region near the TSS. The positions of CpG sites are indicated relative to the TSS. (FIG. 4B) DIV 5 primary cortical neurons were infected with lentivirus expressing Htt-25Q or Htt-72Q exon 1 fragment; 5 days later, genomic DNA was purified and subjected to bisulfite sequencing analysis. […] Increased DNA methylation was found in mutant Htt-expressing neurons compared to WT Htt-expressing neurons. 28-30 clones from 7 independent experiments were analyzed (See FIG. 11A) for the bisulfite sequencing data from each clone). The number above the black bar (Htt-72Q) represents the fold changes in methylated cytosine relative to the white bar (Htt-25Q) at the indicated position. (FIG. 4C) Genomic DNA was purified from primary cortical neurons transduced as in (B) and subjected to MeDIP with anti-5-mC antibody followed by qPCR. […]
Genomic DNA was isolated from primary cortical neurons using QIAamp DNA Mini Kit (QIAGEN) and fragmented by sonication using Bioruptor (Diagenode). […] The percentage input was calculated by first normalizing IP to input DNA using the formula (2^[(Ct(10% input)-3.32)-Ct(IP)]×100) as described previously^89. […]

In assay [3] the test system is Htt-72Q-expressing primary cortical neurons. Nature of the assay: Neurofilament (NF) immunofluorescence, neurite degeneration in cortical neurons. The settings on record: fixed at DIV 14; vs. Htt-72Q (0 μM). The method, then: as §1, §2

Each structure is given as a SMILES string.

Regarding `Nc1ncn([C@H]2C[C@H](O)[C@@H](CO)O2)c(=O)n1` [decitabine, 5-aza-2′-deoxycytidine], the “mutant Htt-induced neurite degeneration (NF immunofluorescence intensity), striatal neurons” value in assay [1] is reported as “protected neurons from mutant Htt-induced neurite degeneration”. Moreover, the “levels of 5-mC in Bdnf promoter IV region (MeDIP)” value in assay [2] was “decreased levels of 5-mC in Bdnf promoter IV region”. Further, the “Htt-72Q-induced neurite degeneration (NF immunofluorescence intensity), cortical neurons” value in assay [3] is reported as “blocked Htt-72Q-induced neurite degeneration”.

`Nc1nc(=O)n([C@H]2C[C@H](O)[C@@H](CO)O2)cc1F` [FdCyd, 5-fluoro-2′-deoxycytidine]: the “mutant Htt-induced neurite degeneration (NF immunofluorescence intensity), striatal neurons” value in assay [1] is “protected neurons from mutant Htt-induced neurite degeneration”. Further, in assay [2], the “levels of 5-mC in Bdnf promoter IV region (MeDIP)” value is recorded as “decreased levels of 5-mC in Bdnf promoter IV region”. In assay [3], the “Htt-72Q-induced neurite degeneration (NF immunofluorescence intensity), cortical neurons” value is recorded as “protected neurons from Htt-72Q-induced neurite degeneration”.
